Reference: US20030130340A1, “Novel benzothiophene derivatives” (Daiichi Pharmaceutical Co. Ltd., priority 2000, published 2003)
Structures can show the parent of a compound that is named as a salt.

Experiments:
[1] = molecular target: T1, steroid 17α-hydroxylase and/or steroid C17-20 lyase (Rattus norvegicus, UniProt P11715); assay: Measurement of steroid 17α-hydroxylase and/or steroid C17-20 lyase inhibitory activity (rat testis microsome, HPLC); type: biochemical; settings: Enzyme source: rat testis microsome; test compound 300 nM; substrate 25 μM 17α-hydroxyprogesterone; NADPH 500 μM; 20 minutes at 37° C.
T1 construct: the testis of rats (SD, male) was homogenized and centrifuged to obtain microsome; from tissue; host or cells: rat (SD, male) testis microsomes
T1 sequence (P11715 1-507): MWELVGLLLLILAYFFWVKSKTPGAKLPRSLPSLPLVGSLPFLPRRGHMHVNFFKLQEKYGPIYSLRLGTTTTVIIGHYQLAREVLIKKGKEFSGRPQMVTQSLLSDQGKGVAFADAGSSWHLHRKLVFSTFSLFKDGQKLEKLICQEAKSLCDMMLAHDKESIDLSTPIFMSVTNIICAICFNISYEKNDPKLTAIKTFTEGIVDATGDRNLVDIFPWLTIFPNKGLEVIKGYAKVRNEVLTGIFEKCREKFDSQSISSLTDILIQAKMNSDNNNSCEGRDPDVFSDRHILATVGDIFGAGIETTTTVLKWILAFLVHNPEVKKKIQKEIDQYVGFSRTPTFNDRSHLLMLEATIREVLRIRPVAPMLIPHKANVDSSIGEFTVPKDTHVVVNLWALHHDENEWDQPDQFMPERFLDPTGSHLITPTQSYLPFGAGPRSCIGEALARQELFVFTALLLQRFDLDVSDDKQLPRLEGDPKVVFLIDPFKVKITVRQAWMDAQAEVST
Experimental: An experiment was carried out according to the method of T. Sergejew and R. W. Hartmann (J. Enzyme Inhibition, 8, 113(1994)). That is, the testis of rats (SD, male) was homogenized and centrifuged to obtain microsome. […] After the addition of 100 μl of microsome protein solution, the protein contentration was adjusted to 0.1 mg/ml by 50 mM phosphate buffer solution (pH 7.4), 140 μl of 125 nmol NADPH solution, and 10 μl of 6.25 nmol 17α-hydroxyprogesterone, the mixture was incubated for 20 minutes at 37° C. 50 μl of 1N hydrochloric acid and 1000 μl of ethyl acetate were sequentially added to the mixture. The mixture was shaken and centrifuged. The ethyl acetate layer was washed with 250 μl of 50 mM phosphate buffer solution (pH 7.4) and 50 μl of 1N hydrochloric acid, centrifuged, and concentrated. The concentrate was dissolved in 100 μl of acetonitrile. 10 μl of this solution was charged to high performance liquid chromatography. The amounts of the substrate and the product (androstenedione and testosterone) were measured to calculate the enzyme activity. In this experiment, a sample without the test compound was provided as a control group. Steroid 17α-hydroxylase and/or steroid C17-20-lyase inhibitory activity (%) was calculated by the following equation (1) using the amounts of the substrate and the product obtained.

Structure (SMILES) | inhibition at 0.3 µM [1] [%] | melting point
COc1ccc2c(-c3ccccn3)csc2c1.Cl [Example 3, 2-[6-methoxybenzo[b]thiophen-3-yl]pyridine hydrochloride] | 9 | 205.5 to 207 °C (dec.)
Oc1ccc2c(-c3ccncc3)csc2c1 [Example 6, 3-(4-pyridyl)benzo[b]thiophen-6-ol] | 3 | 246 to 250 °C
Oc1cccc(-c2ccc3c(-c4cccnc4)csc3c2)c1 [Example 17, 3-[3-(3-pyridyl)benzo[b]thiophen-6-yl]-phenol] | 100 | 188.5 to 189.5 °C
c1cncc(-c2ccc3c(-c4cccnc4)csc3c2)c1 [Example 20, 3-[6-(3-pyridyl)benzo[b]thiophen-3-yl]pyridine] | 100 | 131.5 to 133 °C
O=[N+]([O-])c1cccc(-c2ccc3c(-c4cccnc4)csc3c2)c1 [Example 53, 3-[6-(3-nitrophenyl)benzo[b]thiophen-3-yl]pyridine] | 86 | 

Next, values leading:

inhibition at 0.3 µM [1] [%] | melting point | Structure (SMILES)
98 |  | CC(C)Nc1ccc2c(-c3cccnc3)csc2c1 [Example 54, isopropyl[3-(3-pyridyl)benzo[b]thiophen-6-yl]amine]
94 |  | c1cncc(-c2csc3cc(N4CCOCC4)ccc23)c1 [Example 55, 4-[3-(3-pyridyl)benzo[b]thiophen-6-yl]morpholine dihydrochloride]
63 |  | CC(=O)Nc1ccc2c(-c3cccnc3)csc2c1 [Example 56, N1-[3-(3-pyridyl)benzo[b]thiophen-6-yl]acetamide]
